Experimental data published in patent US20050136017A1, “Hair relaxing composition comprising at least one non-hydroxide imine” (priority 2003, published 2005).

How the values were obtained:
[1] = Relaxing of naturally curly/frizzy African hair with a simplified aqueous relaxing composition
Procedure: (§1) A simplified relaxing composition was prepared, containing, as relaxing active agent, 1,1-dimethylbiguanide (Registry Number [1115-70-4]) at a concentration of 0.75M in water. The pH of the composition was 13.6. The composition was applied to naturally curly/frizzy African hair for 15 minutes at a temperature of 30° C.
as §1, with “of 0.5M” for “of 0.75M”, “was 13.5. This” for “was 13.6. The”, “for 25” for “for 15”
(§2) A simplified relaxing composition was prepared, containing as relaxing active agent, 1,3,4,6,7,8-hexahydro-2H-pyrimido[1,2-a]pyrimidine (Registry Number [5807-14-7]) at a concentration of 0.7M in water. The pH of the composition was 13.5. This composition was applied to naturally curly/frizzy African hair for 15 minutes at a temperature of 30° C.
as §2, with “0.5M” for “0.7M”, “13.4.” for “13.5.”, “25” for “15”

[2] = pH of the simplified relaxing composition; type: physicochemical
Procedure: as §1
as §1, with “of 0.5M” for “of 0.75M”, “was 13.5. This” for “was 13.6. The”, “for 25” for “for 15”
as §2
as §2, with “0.5M” for “0.7M”, “13.4.” for “13.5.”, “25” for “15”

[3] = 0.5M in water (Examples 2 and 4)

Row | Structure (SMILES) | hair relaxing result (relaxing, combing/styling, feel) ([1]; 0.5M in water, pH 13.5, applied 25 minutes at 30° C. (Example 2)) | hair relaxing result (relaxing, combing/styling, feel) ([1]; 0.75M in water, pH 13.6, applied 15 minutes at 30° C. (Example 1)) | pH of the composition [2, 3] | pH of the composition ([2]; 0.75M in water (Example 1)) | hair relaxing result (relaxing, combing/styling, feel) ([1]; 0.5M in water, pH 13.4, applied 25 minutes at 30° C. (Example 4)) | hair relaxing result (relaxing, combing/styling, feel) ([1]; 0.7M in water, pH 13.5, applied 15 minutes at 30° C. (Example 3)) | pH of the composition ([2]; 0.7M in water (Example 3))
1 | CN(C)C(=N)NC(=N)N [1,1-dimethylbiguanide] | efficiently relaxed, easy to comb and style, and felt soft | efficiently relaxed, easy to comb and style, and felt soft | 13.5 | 13.6 |  |  | 
2 | C1CN=C2NCCCN2C1 [1,3,4,6,7,8-hexahydro-2H-pyrimido[1,2-a]pyrimidine] |  |  | 13.4 |  | efficiently relaxed, easy to comb and style, and felt soft | efficiently relaxed, easy to comb and style, and felt soft | 13.5
